Results taken from publication PMC9881875 (bioRxiv, 2023).
Residues, ends and D or L forms follow the SMILES beside them.

Columns and labels:
[1] = molecular target: T1, DLG1 PDZ1 (DLG1–1) (Homo sapiens, UniProt Q12959); assay: Fluorescence polarization competition, DLG1–1; type: binding
[2] = molecular target: T2, SCRIB PDZ1 (SCRIB-1) (Homo sapiens, UniProt Q14160); assay: Fluorescence polarization competition, SCRIB-1; type: binding
[3] = molecular target: SNX27 PDZ (SNX27) (Rattus norvegicus, UniProt Q8K4V4); assay: Fluorescence polarization competition, SNX27; type: binding
[4] = molecular target: T3, MAGI1 PDZ2 (MAGI1–2) (Homo sapiens, UniProt Q96QZ7); assay: Fluorescence polarization competition; type: binding
[5] = molecular target: T4, PTPN3 PDZ (PTPN3) (Homo sapiens, UniProt P26045); assay: Fluorescence polarization competition; type: binding
T4 sequence (P26045 505-597): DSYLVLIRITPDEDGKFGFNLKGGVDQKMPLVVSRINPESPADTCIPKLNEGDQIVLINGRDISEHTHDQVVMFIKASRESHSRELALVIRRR

[6] = molecular target: T5, NHERF1 PDZ1 (N1P1) (Homo sapiens, UniProt O14745); assay: Fluorescence polarization competition, N1P1
T5 sequence (O14745 1-139): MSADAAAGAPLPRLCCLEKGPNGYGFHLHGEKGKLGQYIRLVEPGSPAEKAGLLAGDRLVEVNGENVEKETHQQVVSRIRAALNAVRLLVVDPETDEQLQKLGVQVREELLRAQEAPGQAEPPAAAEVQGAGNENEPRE

[7] = molecular target: NHERF2 PDZ2 (N2P2) (Homo sapiens, UniProt Q15599); assay: Fluorescence polarization competition, N2P2
[8] = molecular target: T1, DLG1 PDZ1 (DLG1–1); assay: Fluorescence polarization direct binding of reporter peptide, DLG1–1
[9] = molecular target: T3, MAGI1 PDZ2 (MAGI1–2); assay: Fluorescence polarization direct binding of reporter peptide, MAGI1–2
[10] = molecular target: T4, PTPN3 PDZ (PTPN3); assay: Fluorescence polarization direct binding of reporter peptide, PTPN3
[11] = molecular target: T2, SCRIB PDZ1 (SCRIB-1); assay: Fluorescence polarization direct binding of reporter peptide, SCRIB-1
[12] = molecular target: T6, TIP-1 PDZ (Homo sapiens, UniProt O14907); assay: Fluorescence polarization competition, TIP-1 PDZ
T6 sequence (O14907 9-120): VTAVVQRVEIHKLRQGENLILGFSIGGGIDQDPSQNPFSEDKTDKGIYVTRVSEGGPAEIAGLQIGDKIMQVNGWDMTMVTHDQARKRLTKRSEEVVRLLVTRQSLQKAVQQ

[13] = molecular target: CAL PDZ (Homo sapiens, UniProt Q9HD26); assay: Fluorescence polarization competition, CAL PDZ

Question: How did the Ki [1] turn out when CC(C)C[C@H](NC(=O)[C@H](CCC(N)=O)NC(=O)[C@@H](NC(=O)[C@H](CC(=O)O)NC(=O)[C@H](CCC(N)=O)NC(=O)[C@@H](NC(=O)[C@@H](NC(=O)[C@H](CCCNC(=N)N)NC(=O)[C@H](CO)NC(=O)[C@@H](N)CO)[C@@H](C)O)C(C)C)[C@@H](C)O)C(=O)O [CFTRP1Q] (H-SSRTVQDTQL-OH) was run?
Answer: 250 ± 150 µM

Question: What about the Ki [2] of the same molecule?
Answer: 150 ± 60 µM

Question: And the Ki [3]?
Answer: 0.26 ± 0.05 µM

Question: And the IC50 [4]?
Answer: 420 ± 210 µM

Question: What about the IC50 [5] of the same molecule?
Answer: 51 ± 14 µM

Question: What about the Ki [6] of the same molecule?
Answer: 25 ± 7 µM

Question: And the Ki [7]?
Answer: 3.1 ± 0.5 µM

Question: With CC(C)C[C@H](NC(=O)[C@H](CCCNC(=N)N)NC(=O)[C@@H](NC(=O)[C@H](CC(=O)O)NC(=O)[C@H](CCCNC(=N)N)NC(=O)[C@@H](NC(=O)[C@@H](NC(=O)[C@H](CCCNC(=N)N)NC(=O)[C@H](CO)NC(=O)[C@@H](N)CO)[C@@H](C)O)C(C)C)[C@@H](C)O)C(=O)O [CFTRP4R] (H-SSRTVRDTRL-OH) as the molecule, how does the Ki [1] read?
Answer: 510 ± 230 µM

Question: And the Ki [2]?
Answer: 370 ± 170 µM

Question: And the Ki [3]?
Answer: 0.44 ± 0.06 µM

Question: And the IC50 [4]?
Answer: 460 ± 200 µM

Question: And the IC50 [5]?
Answer: 85 ± 39 µM

Question: And the Ki [6]?
Answer: 6.9 ± 2.7 µM

Question: And the Ki [7]?
Answer: 1.7 ± 0.5 µM

Question: Which results are given for CC(C)C[C@H](NC(=O)[C@H](CCCNC(=N)N)NC(=O)[C@@H](NC(=O)[C@H](CC(=O)O)NC(=O)[C@H](CCC(N)=O)NC(=O)[C@H](CCCNC(=N)N)NC(=O)[C@@H](NC(=O)[C@H](CCCNC(=N)N)NC(=O)[C@H](CO)NC(=O)[C@@H](N)CO)[C@@H](C)O)[C@@H](C)O)C(=O)O [CFTRP5R] (H-SSRTRQDTRL-OH)?
Answer: Ki [1]: 430 ± 200 µM; Ki [2]: 50 ± 10 µM; Ki [3]: 7.4 ± 4.5 µM; IC50 [4]: 220 ± 50 µM; IC50 [5]: 120 ± 20 µM; Ki [6]: 1.8 ± 0.3 µM; Ki [7]: 0.49 ± 0.38 µM

Question: CC(C)C[C@H](NC(=O)[C@H](CCC(N)=O)NC(=O)[C@@H](NC(=O)[C@H](CCC(=O)O)NC(=O)[C@H](CCCNC(=N)N)NC(=O)[C@H](CCCNC(=N)N)NC(=O)[C@@H](NC(=O)[C@H](CCCNC(=N)N)NC(=O)[C@H](CO)NC(=O)[C@H](CO)NC(=S)Nc1ccc2c(c1)C(=O)OC21c2ccc(O)cc2Oc2cc(O)ccc21)[C@@H](C)O)[C@@H](C)O)C(=O)O [F*-HPV16 E6] was tested. Which Kd [8] did it give?
Answer: 17 ± 4 µM

Question: And the Kd [9]?
Answer: 12 ± 4 µM

Question: What about the Kd [10] of the same molecule?
Answer: 2 ± 1 µM

Question: What about the Kd [11] of the same molecule?
Answer: 5.1 ± 1.7 µM

Question: How did the Ki [1] turn out when CC(C)C[C@H](NC(=O)[C@H](CCC(N)=O)NC(=O)[C@@H](NC(=O)[C@H](CCC(=O)O)NC(=O)[C@H](CCCNC(=N)N)NC(=O)[C@H](CCCNC(=N)N)NC(=O)[C@@H](NC(=O)[C@H](CCCNC(=N)N)NC(=O)[C@H](CO)NC(=O)[C@@H](N)CO)[C@@H](C)O)[C@@H](C)O)C(=O)O [HPV16 E6] was run?
Answer: 22 ± 12 µM

Question: What about the Ki [2] of the same molecule?
Answer: 20 ± 7 µM

Question: And the Ki [3]?
Answer: 1.5 ± 0.5 µM

Question: What about the IC50 [4] of the same molecule?
Answer: 3.7 ± 0.1 µM

Question: And the IC50 [5]?
Answer: 10.1 µM

Question: What about the Ki [6] of the same molecule?
Answer: 100 ± 50 µM

Question: And the Ki [7]?
Answer: 17 ± 6 µM

Question: What about the Ki [12] of the same molecule?
Answer: 11 ± 1 µM

Question: With CC(C)C[C@H](NC(=O)[C@H](CCCNC(=N)N)NC(=O)[C@@H](NC(=O)[C@H](CCC(=O)O)NC(=O)[C@H](CCCNC(=N)N)NC(=O)[C@H](CCCNC(=N)N)NC(=O)[C@@H](NC(=O)[C@H](CCCNC(=N)N)NC(=O)[C@H](CO)NC(=O)[C@@H](N)CO)[C@@H](C)O)[C@@H](C)O)C(=O)O [HPVP1R] (H-SSRTRRETRL-OH) as the molecule, how does the Ki [1] read?
Answer: 39 ± 11 µM

Question: What about the Ki [2] of the same molecule?
Answer: 13 ± 2 µM

Question: What about the Ki [3] of the same molecule?
Answer: 2.1 ± 0.7 µM

Question: And the IC50 [4]?
Answer: 5.2 ± 2.4 µM

Question: What about the IC50 [5] of the same molecule?
Answer: 18 ± 1 µM

Question: And the Ki [6]?
Answer: 8.8 ± 3.4 µM

Question: What about the Ki [7] of the same molecule?
Answer: 6.9 ± 1.1 µM

Question: What about the Ki [13] of the same molecule?
Answer: 42 ± 10 µM

Question: What about the Ki [12] of the same molecule?
Answer: 22 ± 5 µM

Question: For CC(C)C[C@H](NC(=O)[C@H](CCC(N)=O)NC(=O)[C@@H](NC(=O)[C@H](CCC(=O)O)NC(=O)[C@H](CCC(N)=O)NC(=O)[C@H](CCCNC(=N)N)NC(=O)[C@@H](NC(=O)[C@H](CCCNC(=N)N)NC(=O)[C@H](CO)NC(=O)[C@@H](N)CO)[C@@H](C)O)[C@@H](C)O)C(=O)O [HPVP4Q] (H-SSRTRQETQL-OH), which Ki [1] is on record?
Answer: 23 ± 6 µM

Question: What about the Ki [2] of the same molecule?
Answer: 13 ± 2 µM

Question: And the Ki [3]?
Answer: 0.51 ± 0.22 µM

Question: And the IC50 [4]?
Answer: 3.8 ± 2.1 µM

Question: What about the IC50 [5] of the same molecule?
Answer: 18 ± 5 µM

Question: What about the Ki [6] of the same molecule?
Answer: 21 ± 7 µM

Question: What about the Ki [7] of the same molecule?
Answer: 5.2 ± 0.6 µM

Question: And the Ki [13]?
Answer: 56 ± 6 µM

Question: What about the Ki [12] of the same molecule?
Answer: 34 ± 2 µM

Question: Which results are given for CC(C)C[C@H](NC(=O)[C@H](CCC(N)=O)NC(=O)[C@@H](NC(=O)[C@H](CCC(=O)O)NC(=O)[C@H](CCCNC(=N)N)NC(=O)[C@@H](NC(=O)[C@@H](NC(=O)[C@H](CCCNC(=N)N)NC(=O)[C@H](CO)NC(=O)[C@@H](N)CO)[C@@H](C)O)C(C)C)[C@@H](C)O)C(=O)O [HPVP5V] (H-SSRTVRETQL-OH)?
Answer: Ki [1]: 13 ± 4 µM; Ki [2]: 4.5 ± 2.8 µM; Ki [3]: 0.11 ± 0.03 µM; IC50 [4]: 4.4 ± 1.1 µM; IC50 [5]: 3.4 ± 0.3 µM; Ki [6]: 67 ± 28 µM; Ki [7]: 7 ± 3.6 µM; Ki [13]: 190 ± 10 µM; Ki [12]: 35 ± 4 µM
